Reference: publication PMC12074421, “Development and Characterization of pFluor50, a Fluorogenic-Based Kinetic Assay System for High-Throughput Inhibition Screening and Characterization of Time-Dependent Inhibition and Inhibition Type for Six Human CYPs” (Molecules, 2025)
Where “and” joins values, the source holds several entries; their conditions need not be identical. Identical values can stand only once. Entries after “also recorded” stand apart in the source; their conditions may differ. Counter-ions that a name gives are not always drawn. Like-named read-outs stand apart in the source and are kept apart here.

How the values were obtained:
CYP2D6 [1] = molecular target: T1, CYP2D6 (Homo sapiens, UniProt P10635); assay: pFluor50 fluorogenic CYP2D6 inhibition (IC50, time dependence); settings: 30 µM inhibitor, pre-incubation between 5 and 30 min
CYP2B6 [2] = molecular target: T2, CYP2B6 (Homo sapiens, UniProt P20813); set-up: purchased Sigma Aldrich (CYPexpress, Oxford Biomedical Research, Inc.) MTOXCE2B6; settings: read-out: Literature IC50 (converted), cited from earlier work
T2 sequence (P20813 1-491): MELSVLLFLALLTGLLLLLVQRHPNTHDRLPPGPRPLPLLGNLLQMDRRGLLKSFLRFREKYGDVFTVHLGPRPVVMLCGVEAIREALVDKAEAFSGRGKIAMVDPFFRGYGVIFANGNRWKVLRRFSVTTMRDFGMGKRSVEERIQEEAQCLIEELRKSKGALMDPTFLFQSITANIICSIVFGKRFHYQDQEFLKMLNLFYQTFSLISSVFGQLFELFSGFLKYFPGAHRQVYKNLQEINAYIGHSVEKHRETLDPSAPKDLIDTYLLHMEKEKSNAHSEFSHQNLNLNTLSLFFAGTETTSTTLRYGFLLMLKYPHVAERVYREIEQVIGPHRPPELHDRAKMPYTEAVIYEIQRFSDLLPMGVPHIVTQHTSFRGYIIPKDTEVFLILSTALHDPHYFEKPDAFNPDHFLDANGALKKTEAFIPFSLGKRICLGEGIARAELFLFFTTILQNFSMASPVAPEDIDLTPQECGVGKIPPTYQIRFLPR

CYP2D6 [3] = molecular target: T1, CYP2D6; assay: biochemical
CYP2B6 [4] = molecular target: T2, CYP2B6; assay: pFluor50 fluorogenic CYP2B6 inhibition (IC50, time dependence); settings: 30 µM inhibitor, pre-incubation between 5 and 30 min
Procedure: (§1) Therefore, the pre-incubation time between the inhibitor and the CYP was first optimized prior to the full IC50 determinations. […] Therefore, a 10 min pre-incubation time was selected for convenience. […] Therefore, the sertraline pre-incubation time for the inhibition assay was optimized to 30 min (the time at which inhibition was no longer time-dependent).

CYP2D6 [5] = molecular target: T1, CYP2D6; set-up: purchased Sigma Aldrich (CYPexpress, Oxford Biomedical Research, Inc.) MTOXCE2D6; settings: CYP2D6, Bufuralol/LC-MS/MS; read-out: Literature IC50 (converted); cited from earlier work
CYP2B6 [6] = molecular target: T2, CYP2B6; assay: biochemical
Procedure: as §1

T1 sequence (P10635 whole entry): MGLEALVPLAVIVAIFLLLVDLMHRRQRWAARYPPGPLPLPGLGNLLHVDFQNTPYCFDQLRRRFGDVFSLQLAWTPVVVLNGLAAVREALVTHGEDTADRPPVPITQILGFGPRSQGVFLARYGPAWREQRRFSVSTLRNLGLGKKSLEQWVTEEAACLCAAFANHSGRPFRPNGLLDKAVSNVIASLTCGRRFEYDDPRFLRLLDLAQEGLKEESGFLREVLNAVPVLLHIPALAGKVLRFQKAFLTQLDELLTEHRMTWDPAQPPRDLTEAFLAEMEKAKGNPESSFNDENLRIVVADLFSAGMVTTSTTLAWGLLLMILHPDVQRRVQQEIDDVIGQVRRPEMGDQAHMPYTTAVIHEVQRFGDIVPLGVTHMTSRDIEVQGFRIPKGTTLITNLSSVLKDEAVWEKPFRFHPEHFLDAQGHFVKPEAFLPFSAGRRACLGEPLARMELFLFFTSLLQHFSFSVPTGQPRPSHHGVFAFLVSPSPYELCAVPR

IC50 (CYP2D6 [3]): 5790 nM and 3220 nM and 4240 nM and 4420 nM | IC50 (CYP2B6 [6]): 385 nM and 1390 nM and 477 nM and 752 nM
Structure (SMILES): CN[C@H]1CC[C@@H](c2ccc(Cl)c(Cl)c2)c2ccccc21 [Sertraline, sertraline hydrochloride]
Time dependence of CYP2D6 inhibition (CYP2D6 [1]): time-dependent manner; also recorded: increase in inhibition with time | IC50 (CYP2B6 [2]; CYP2B6, Bupropion/LC-MS/MS, ref 52): 200 ± 24 nM | IC50 (CYP2B6 [2]; CYP2B6, Bupropion/LC-MS/MS, ref 54): 1430 nM | IC50 (CYP2B6 [2]; CYP2B6, HLM, Bupropion/LC-MS/MS): 3200 nM | Time dependence of CYP2B6 inhibition (CYP2B6 [4]): increases with time; also recorded: time-dependent manner | IC50 (CYP2D6 [5]): 2000 nM
